Measurements: US20190381061A1, “LOCAL ANESTHESIA PAIN-RELIEVING TIME-DELAY AGENT” (priority 2013, published 2019)

Experiments:
[1] = system: peripheral nerve medulla; conditions: cited from earlier work
[2] = system: patient; experiment: Local anesthesia for clinical surgical operations: composition combined with a local anesthetic and injected locally; format: in vivo, human
Experimental: The above components are injected into 4 ml of 0.375% bupivacaine, and a 0.9% saline solution is added so that the total volume became 8 ml, and then, the composition is subcutaneously injected into both eyebrow regions.
The above components were injected into 30 ml of 1% prilocain hydrochloride according to the ratio, and 0.9% […] was added so that the total volume became 60 ml, and then, the composition was subcutaneously, intramuscularly and subperiosteally injected into the operation site of a patient using a 3 cm needle, and as the result, it was concluded that onset time of anesthesia is shortened to 60 seconds from 5 minutes of the existing case wherein only lidocaine was injected, and the duration of anesthetic action is prolonged from the existing 2 hours to 40 days. […].
The above components were injected into 20 ml of 0.5% procaine, and a 0.9% saline solution was added so that the total volume became 40 ml, and then, the composition was sequentially injected subcutaneously, intramusculary and intraperitoneally along the appendectomy scar of the patient using a 3 cm needle, and as the result, it was concluded that onset time of anesthetic is 60 seconds, and the duration of pain relief continues for 40 days. […]. […]

SMILES	concentration at which it may directly injure peripheral nerve medulla to cause irreparable nerve injury [1] [%]	duration of anesthetic action / pain relief, existing ([2]; existing case, without the composition of the example) [h]	onset time of anesthesia, existing case ([2]; only the local anesthetic injected, without the composition) [min]
CN(C)c1ccc2nc3ccc(=[N+](C)C)cc-3sc2c1 [Methyleneblue]	> 0.03	–	–
CCN(CC)CC(=O)Nc1c(C)cccc1C [lidocaine]	–	2	5
